From patent publication US20090011013A1, “Tacrolimus Combination Products” (LIFECYCLE PHARMA A/S, priority 2005, published 2009)
Read-outs that look alike come from different tables or passages of the source.

Legend:
[1] = three-way crossover pilot bioavailability study of Prograf and Neoral combinations vs. Prograf; format: in vivo, human
[2] = cited from earlier work
[3] = cited from earlier work; remark: listed apart in the source
[4] = rats, cited from earlier work
[5] = tested on: Canine Lung Allotransplantation; conditions: dogs, cited from earlier work
[6] = oral, cited from earlier work

Q: Which “increase in tacrolimus bioavailability” value ([1]; tacrolimus and cyclosporine in a ratio of 1:20) does the source give for `C=CC[C@@H]1/C=C(\C)C[C@H](C)C[C@H](OC)[C@H]2O[C@@](O)(C(=O)C(=O)N3CCCC[C@H]3C(=O)O[C@H](/C(C)=C/[C@@H]3CC[C@@H](O)[C@H](OC)C3)[C@H](C)[C@@H](O)CC1=O)[C@H](C)C[C@@H]2OC` [Tacrolimus] here?
A: The value was “above 100%”.

Q: What about the “increase of bioavailability of tacrolimus” value ([1]; tacrolimus and cyclosporine in the ratio of 1:2) of the same compound?
A: The value was 30%.

Q: And the solubility in chloroform ([2]; chloroform)?
A: Its solubility in chloroform is “very soluble”.

Q: And the solubility in ethanol ([2]; ethanol)?
A: The solubility in ethanol was “freely soluble”.

Q: What about the solubility in methanol ([2]; methanol) of the same compound?
A: The solubility in methanol was “very soluble”.

Q: And the solubility in water ([2]; water)?
A: The solubility in water was “practically insoluble”.

Q: What about the bioavailability ([3]; after oral administration) of the same compound?
A: The bioavailability was no more than 20%.

Q: And the “mean time-to-peak concentration (tmax)” value ([3]; oral, healthy subjects or kidney or liver transplanted patients)?
A: The value was 1 to 2 h.

Q: And the hepatic extraction ratio ([4]; calculated)?
A: Its hepatic extraction ratio is 60%.

Q: And the intestinal extraction ([4]; calculated)?
A: Its intestinal extraction is 34%.

Q: And the bioavailability ([4]; intestinal administration)?
A: The bioavailability was roughly 25%.

Q: What about the bioavailability ([4]; intraportal administration (infusion over 1 hour)) of the same compound?
A: The bioavailability was “about 40%”.

Q: What about the “blood concentration of tacrolimus, combination vs alone at same dose” value ([5]; group E vs group C) of the same compound?
A: The value was “not significant higher”.

Q: What about the immunosuppressive effect ([5]; i.m. 0.03 mg/kg/day (suboptimal dose)) of the same compound?
A: Its immunosuppressive effect is “rejection”.

Q: And the immunosuppressive effect ([5]; i.m. 0.1 mg/kg/day (optimal dose))?
A: The immunosuppressive effect was “adequate immunosuppression”.

Q: What about the “time to reach peak” value ([6]; most patients) of the same compound?
A: The value was no more than 1 h.

Q: What about the “time to reach peak” value ([6]; some patients) of the same compound?
A: The value was no less than 4 h.
